What all share (conditions): primary screen
Test [1] deals with ENR+CD organoids (ISC to Paneth cell differentiation). The experiment in a line: Primary screen: basal (non-stimulated) lysozyme secretion LYZ.NS, 2.5-D 384-well ENR+CD organoid differentiation. It is filed as cell-based, mouse. The source says: (§1) High-throughput screening.
Test [2] deals with ENR+CD organoids. The experiment in a line: Primary screen: ATP (CellTiter-Glo 3D, CTG) cell number/viability, 2.5-D 384-well ENR+CD organoids.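 Further: compounds given at plating and again on day 3 over a 6-day differentiation from ENR+CV stem-cell-enriched precursors, ATP measured on day 6, plate median as control.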
Test [3] relates to ENR+CD organoids (ISC to Paneth cell differentiation). The test is described as follows: Primary screen: CCh-stimulated lysozyme secretion LYZ.S, 2.5-D 384-well ENR+CD organoid differentiation. The format is cell-based, mouse.
Source text: as §1

As to `C[C@@H]1COCCN1c1cc(C2(S(C)(=O)=O)CC2)nc(-c2cccc3[nH]ccc23)n1` [AZ20], the Dose.FC.LYZ.NS in test [1] (dose 0.08 uM) was 0.042 log2 fold change; in test [1] (dose 0.40 uM) it was −0.140 log2 fold change; in test [1] (dose 2.00 uM), −0.215 log2 fold change; in test [1] (dose 10.00 uM), −0.261 log2 fold change. Further, the “Z.LYZ.NS (standard z score)” value in test [1] (dose 0.08 uM) is 0.365; in test [1] (dose 0.40 uM) it was −1.222; in test [1] (dose 2.00 uM), −1.868; in test [1] (dose 10.00 uM) it was −2.271. In addition, the Dose.FC.CTG in test [2] (dose 0.08 uM) is on record as −0.210 log2 fold change; in test [2] (dose 0.40 uM) it was −0.218 log2 fold change; in test [2] (dose 2.00 uM), −1.054 log2 fold change; in test [2] (dose 10.00 uM), −0.573 log2 fold change. For the same molecule, the “Z.CTG (standard z score)” value in test [2] (dose 0.08 uM) is given as −0.500; in test [2] (dose 0.40 uM), −0.521; in test [2] (dose 2.00 uM), −2.519; in test [2] (dose 10.00 uM), −1.368. Moreover, the Dose.FC.LYZ.S in test [3] (dose 0.08 uM) is reported as −0.038 log2 fold change; in test [3] (dose 0.40 uM), −0.236 log2 fold change; in test [3] (dose 2.00 uM) it was −0.373 log2 fold change; in test [3] (dose 10.00 uM), −0.329 log2 fold change.
On to `COc1cc(N2CCN(C)CC2)ccc1Nc1nccc(-c2cn(C)c3cnccc23)n1` [AZ191], for which the Dose.FC.LYZ.NS in test [1] (dose 0.08 uM) is recorded as 0.128 log2 fold change; in test [1] (dose 0.40 uM) it was 0.082 log2 fold change; in test [1] (dose 2.00 uM), 0.058 log2 fold change; in test [1] (dose 10.00 uM) it was −0.148 log2 fold change. Besides, the “Z.LYZ.NS (standard z score)” value in test [1] (dose 0.08 uM) was 1.111; in test [1] (dose 0.40 uM), 0.717; in test [1] (dose 2.00 uM), 0.507; in test [1] (dose 10.00 uM), −1.289. Moreover, the Dose.FC.CTG in test [2] (dose 0.08 uM) is reported as 0.292 log2 fold change; in test [2] (dose 0.40 uM), 0.337 log2 fold change; in test [2] (dose 2.00 uM), 0.150 log2 fold change; in test [2] (dose 10.00 uM), −0.533 log2 fold change. Besides, the “Z.CTG (standard z score)” value in test [2] (dose 0.08 uM) is recorded as 0.697; in test [2] (dose 0.40 uM), 0.804; in test [2] (dose 2.00 uM), 0.358; in test [2] (dose 10.00 uM), −1.272. For the same molecule, the Dose.FC.LYZ.S in test [3] (dose 0.08 uM) was 0.143 log2 fold change; in test [3] (dose 0.40 uM), 0.199 log2 fold change; in test [3] (dose 2.00 uM) it was 0.097 log2 fold change; in test [3] (dose 10.00 uM), −0.200 log2 fold change.
On to `COc1cc(OC2CCN(C)CC2)ccc1Nc1ncc2c(n1)n(C1CCCC1)c(=O)n2C` [AZ 3146], for which the Dose.FC.LYZ.NS in test [1] (dose 0.08 uM) was 0.073 log2 fold change; in test [1] (dose 0.40 uM), −0.038 log2 fold change; in test [1] (dose 2.00 uM) it was −0.079 log2 fold change; in test [1] (dose 10.00 uM) it was −0.281 log2 fold change. The “Z.LYZ.NS (standard z score)” value is reported as 0.639 in test [1] (dose 0.08 uM), −0.327 in test [1] (dose 0.40 uM), −0.687 in test [1] (dose 2.00 uM) and −2.447 in test [1] (dose 10.00 uM). For the same molecule, the Dose.FC.CTG is given as −0.130 log2 fold change in test [2] (dose 0.08 uM), −0.262 log2 fold change in test [2] (dose 0.40 uM), −0.369 log2 fold change in test [2] (dose 2.00 uM) and −1.168 log2 fold change in test [2] (dose 10.00 uM). For the same molecule, the “Z.CTG (standard z score)” value in test [2] (dose 0.08 uM) is −0.310; in test [2] (dose 0.40 uM), −0.626; in test [2] (dose 2.00 uM), −0.881; in test [2] (dose 10.00 uM), −2.789. Also, the Dose.FC.LYZ.S in test [3] (dose 0.08 uM) is given as 0.049 log2 fold change; in test [3] (dose 0.40 uM), −0.067 log2 fold change; in test [3] (dose 2.00 uM), −0.130 log2 fold change; in test [3] (dose 10.00 uM), −0.422 log2 fold change.
Take `CC(=O)Nc1cccc2c1c(Sc1ccc(Cl)cc1)c(C)n2CC(=O)O` [AZD1981]: the Dose.FC.LYZ.NS in test [1] (dose 0.08 uM) turned out to be 0.009 log2 fold change; in test [1] (dose 0.40 uM), 0.001 log2 fold change; in test [1] (dose 2.00 uM), 0.001 log2 fold change; in test [1] (dose 10.00 uM), 0.024 log2 fold change. The “Z.LYZ.NS (standard z score)” value is recorded as 0.081 in test [1] (dose 0.08 uM), 0.008 in test [1] (dose 0.40 uM), 0.011 in test [1] (dose 2.00 uM) and 0.205 in test [1] (dose 10.00 uM). For the same molecule, the Dose.FC.CTG in test [2] (dose 0.08 uM) was found to be 0.400 log2 fold change; in test [2] (dose 0.40 uM) it was 0.285 log2 fold change; in test [2] (dose 2.00 uM) it was 0.099 log2 fold change; in test [2] (dose 10.00 uM), 0.238 log2 fold change. Moreover, the “Z.CTG (standard z score)” value worked out at 0.955 in test [2] (dose 0.08 uM), 0.681 in test [2] (dose 0.40 uM), 0.236 in test [2] (dose 2.00 uM) and 0.570 in test [2] (dose 10.00 uM). In addition, the Dose.FC.LYZ.S in test [3] (dose 0.08 uM) was found to be 0.023 log2 fold change; in test [3] (dose 0.40 uM), 0.191 log2 fold change; in test [3] (dose 2.00 uM) it was 0.014 log2 fold change; in test [3] (dose 10.00 uM), 0.070 log2 fold change.
As to `COC1CCN(C(=O)c2cc(Cc3n[nH]c(=O)c4ccccc34)ccc2F)CC1` [AZD2461], the Dose.FC.LYZ.NS in test [1] (dose 0.08 uM) was 0.038 log2 fold change; in test [1] (dose 0.40 uM), −0.038 log2 fold change; in test [1] (dose 2.00 uM), −0.074 log2 fold change; in test [1] (dose 10.00 uM), −0.172 log2 fold change. Also, the “Z.LYZ.NS (standard z score)” value is given as 0.334 in test [1] (dose 0.08 uM), −0.327 in test [1] (dose 0.40 uM), −0.641 in test [1] (dose 2.00 uM) and −1.497 in test [1] (dose 10.00 uM). Besides, the Dose.FC.CTG in test [2] (dose 0.08 uM) was 0.073 log2 fold change; in test [2] (dose 0.40 uM), −0.040 log2 fold change; in test [2] (dose 2.00 uM), −0.232 log2 fold change; in test [2] (dose 10.00 uM), −0.336 log2 fold change. Moreover, the “Z.CTG (standard z score)” value is 0.174 in test [2] (dose 0.08 uM), −0.095 in test [2] (dose 0.40 uM), −0.555 in test [2] (dose 2.00 uM) and −0.803 in test [2] (dose 10.00 uM). Further, the Dose.FC.LYZ.S is recorded as 0.097 log2 fold change in test [3] (dose 0.08 uM), 0.015 log2 fold change in test [3] (dose 0.40 uM), −0.100 log2 fold change in test [3] (dose 2.00 uM) and −0.224 log2 fold change in test [3] (dose 10.00 uM).
As to `COc1cc(N2CCC(N)CC2)ccc1Nc1ncc(Cl)c(-c2c[nH]c3ccccc23)n1` [AZD3463], the Dose.FC.LYZ.NS is on record as −0.147 log2 fold change in test [1] (dose 0.08 uM), −0.190 log2 fold change in test [1] (dose 0.40 uM), −0.232 log2 fold change in test [1] (dose 2.00 uM) and −0.209 log2 fold change in test [1] (dose 10.00 uM). For the same molecule, the “Z.LYZ.NS (standard z score)” value is −1.279 in test [1] (dose 0.08 uM), −1.652 in test [1] (dose 0.40 uM), −2.021 in test [1] (dose 2.00 uM) and −1.820 in test [1] (dose 10.00 uM). The Dose.FC.CTG in test [2] (dose 0.08 uM) was −0.275 log2 fold change; in test [2] (dose 0.40 uM), −0.341 log2 fold change; in test [2] (dose 2.00 uM), −0.772 log2 fold change; in test [2] (dose 10.00 uM), −0.960 log2 fold change. Also, the “Z.CTG (standard z score)” value in test [2] (dose 0.08 uM) was −0.657; in test [2] (dose 0.40 uM), −0.814; in test [2] (dose 2.00 uM), −1.843; in test [2] (dose 10.00 uM), −2.293. In addition, the Dose.FC.LYZ.S in test [3] (dose 0.08 uM) was −0.199 log2 fold change; in test [3] (dose 0.40 uM) it was −0.293 log2 fold change; in test [3] (dose 2.00 uM), −0.315 log2 fold change; in test [3] (dose 10.00 uM), −0.328 log2 fold change.
For `Cc1cc([C@@H](C)Nc2ccccc2C(=O)O)c2nc(N3CCOCC3)cc(=O)n2c1` [AZD6482], the Dose.FC.LYZ.NS in test [1] (dose 0.08 uM) is 0.108 log2 fold change; in test [1] (dose 0.40 uM), 0.076 log2 fold change; in test [1] (dose 2.00 uM), −0.130 log2 fold change; in test [1] (dose 10.00 uM) it was −0.248 log2 fold change. In addition, the “Z.LYZ.NS (standard z score)” value is given as 0.944 in test [1] (dose 0.08 uM), 0.660 in test [1] (dose 0.40 uM), −1.129 in test [1] (dose 2.00 uM) and −2.160 in test [1] (dose 10.00 uM). In addition, the Dose.FC.CTG is 0.240 log2 fold change in test [2] (dose 0.08 uM), 0.223 log2 fold change in test [2] (dose 0.40 uM), −0.509 log2 fold change in test [2] (dose 2.00 uM) and −1.203 log2 fold change in test [2] (dose 10.00 uM). For the same molecule, the “Z.CTG (standard z score)” value in test [2] (dose 0.08 uM) is reported as 0.572; in test [2] (dose 0.40 uM), 0.533; in test [2] (dose 2.00 uM), −1.215; in test [2] (dose 10.00 uM) it was −2.874. The Dose.FC.LYZ.S in test [3] (dose 0.08 uM) is reported as 0.182 log2 fold change; in test [3] (dose 0.40 uM) it was 0.156 log2 fold change; in test [3] (dose 2.00 uM), −0.114 log2 fold change; in test [3] (dose 10.00 uM) it was −0.253 log2 fold change.
Turning to `CN(C)C(=O)c1ccc(S(=O)(=O)c2ccc(NC(=O)[C@@](C)(O)C(F)(F)F)c(Cl)c2)cc1` [AZD7545], the Dose.FC.LYZ.NS is 0.087 log2 fold change in test [1] (dose 0.08 uM), −0.028 log2 fold change in test [1] (dose 0.40 uM), −0.018 log2 fold change in test [1] (dose 2.00 uM) and −0.051 log2 fold change in test [1] (dose 10.00 uM). The “Z.LYZ.NS (standard z score)” value in test [1] (dose 0.08 uM) is listed as 0.758; in test [1] (dose 0.40 uM), −0.245; in test [1] (dose 2.00 uM), −0.155; in test [1] (dose 10.00 uM) it was −0.441. Moreover, the Dose.FC.CTG was −0.334 log2 fold change in test [2] (dose 0.08 uM), −0.158 log2 fold change in test [2] (dose 0.40 uM), −0.255 log2 fold change in test [2] (dose 2.00 uM) and −0.350 log2 fold change in test [2] (dose 10.00 uM). The “Z.CTG (standard z score)” value in test [2] (dose 0.08 uM) was −0.798; in test [2] (dose 0.40 uM), −0.378; in test [2] (dose 2.00 uM), −0.608; in test [2] (dose 10.00 uM), −0.836. Also, the Dose.FC.LYZ.S is 0.111 log2 fold change in test [3] (dose 0.08 uM), −0.017 log2 fold change in test [3] (dose 0.40 uM), −0.148 log2 fold change in test [3] (dose 2.00 uM) and −0.104 log2 fold change in test [3] (dose 10.00 uM).

Values taken from patent US20220323406A1, “METHODS AND COMPOSITIONS FOR DIFFERENTIATING STEM CELLS” (Massachusetts Institute of Technology, priority 2019, published 2022).
